Like-named read-outs stand apart in the source and are kept apart here.
Experiments:
[1] = biological target: T1, human FABP1 (Homo sapiens, UniProt P07148); assay: DAUDA fluorescence displacement binding assay; conditions: for maximal displacement of the fluorescent probe DAUDA: maximal effect in the tested concentration range
T1 construct: His tag (N); host or cells: BL21(DE3) Escherichia coli
T1 sequence (P07148 1-127): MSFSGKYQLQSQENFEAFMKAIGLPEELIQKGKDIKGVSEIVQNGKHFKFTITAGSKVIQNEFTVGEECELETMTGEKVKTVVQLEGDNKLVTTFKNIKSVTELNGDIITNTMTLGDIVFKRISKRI
Description: Human FABP1 in a pNIC28-Bsa4 vector was obtained from Addgene (plasmid #42344; Addgene, Cambridge, MA, USA). Following sequence verification the construct was transformed into BL21(DE3) Escherichia coli for expression. The recombinant FABP1 protein was purified by nickel-affinity chromatography as described previously. Residual endogenous bacterial lipids were stripped from the purified protein by incubation in a column of hydroxyalkoxypropyl-dextran (Sigma Chemical Co., St Louis, MO, USA) for 1 hour at 37 °C.
Binding assays were carried out in 96-well Costar® plates (Corning Life Science, Kennebunk, ME, USA). FABP1 (3 μM) was incubated with DAUDA (500 nM), in binding assay buffer (30 mM Tris-HCl, 100 mM NaCl, pH 7.6). Competitor test compounds (0.1–500 μM) were then introduced to the well, mixed, and the system was allowed to equilibrate for 20 minutes at 25 °C in the dark. All experimental conditions were tested in triplicate. […] Loss of fluorescence intensity was monitored with an F5 Filtermax Multi-Mode Microplate Reader (Molecular Devices, Sunnyvale, CA, USA) using excitation/emission wavelengths = 345/535 nm. Following background subtraction, raw fluorescence intensity values were normalized and fit to a one-site competition binding analysis using the Graphpad Prism software.

[2] = THC pharmacokinetics in wild-type and FABP1-KO mice (LC-MS/MS of brain and plasma); conditions: THC 10 mg/kg i.p.; for AUC: 0-24 h
Description: The pharmacokinetics of THC were subsequently examined to determine whether FABP1 regulates THC biotransformation in vivo. Wild-type and FABP1-KO mice were administered a single dose of THC (10 mg/kg, i.p.) and blood plasma and brains were harvested at several time points during a 24-hour time course (0, 0.5, 1, 2, 3, 4, 6, 7, and 24 hours post-THC). Levels of THC and its major primary and secondary metabolites (11-OH-THC and THC-COOH) were subsequently quantified by LC-MS/MS.
Mice were administered THC (10 mg/kg, i.p.) and plasma and brain samples were collected at the following time points: 0, 0.5, 1, 2, 3, 4, 6, 7, 24 hours. Tissues were immediately placed on dry ice and stored at −80 °C until processing. The AUC from time 0 to 24 h was calculated by the trapezoidal rule.
The tissues were rapidly thawed, spiked with 25 μl deuterated internal standard solution (containing THC-d3, 11-OH-THC-d3, and THC-COOH-d3; 5 ng/mL each, in methanol) (Cerillient Corporation, Round Rock, TX, USA) and homogenized on ice in Tris, pH 8.0. Protein precipitation was performed by adding two volumes ice-cold acetonitrile drop-wise while vortexing, centrifuged at 10,000 RCF for 10 minutes at 4 °C, and stored overnight at −20 °C to allow time for complete phase separation. The organic phase was transferred to a new glass tube and dried down under a steady stream of argon gas. The dried samples were resuspended in 100 μl 1:1 acetonitrile:ddH2O and submitted to the Stony Brook Proteomics Center for LC-MS/MS quantification of THC and THC metabolites.

[3] = biological target: T1, human FABP1; assay: DAUDA probe saturation binding to FABP1 (probe Kd determination); conditions: FABP1 1 μM, DAUDA 0–16 μM
Description: Recombinant human FABP1 (1 μM) was titrated with DAUDA (0–16 μM). The raw fluorescence intensity at each data point was corrected by subtracting the signal from each respective probe concentration in the absence of protein. Kd and Bmax were then calculated by fitting the titration curve to the single-site saturation binding equation [Y = Bmax*X/(Kd + X)] using the GraphPad Prism software (Prism version 7.0 for Mac OS: Graphpad software Incorporated, La Jolla, CA, USA).

[4] = tested on: body temperature of wild-type and FABP1-KO mice; assay: THC-induced hypothermia (implanted iButton Thermocron core temperature); type: in vivo, mouse; conditions: THC 10 mg/kg i.p.
Description: (§1) Hypothermia and spontaneous locomotor activity were assessed over a 12 hour period following a single intraperitoneal (i.p.) injection of 10 mg/kg THC or vehicle (1:1:18 DMSO:Cremophor-EL:saline) to naïve mice. This dose was selected because it produces submaximal cannabimimetic effects and potentiation of THC effects is unlikely to be hampered by a ceiling effect[33],[34]. All mice were kept on a 12/12 hour light/dark cycle and THC was administered immediately prior to the dark phase to control for circadian effects. […] Therefore, in the present study THC pharmacodynamics were independently assessed in mice of both genders.
Mice were anesthetized with an i.p. injection of a surgical mixture of ketamine (100 mg/kg) and xylazine (10 mg/kg). Thermocron iButton® (Dallas Semiconductor Company, Dallas, TX, USA) temperature data loggers were sterilized with 70% ethanol and surgically implanted into the abdominal cavities. The mice were permitted to recover from surgery for at least one week prior to being subjected to any experiments. The factory calibrated thermocrons were programmed to record temperature measurements every three minutes with 0.5 °C accuracy and 0.0625 °C precision.

[5] = tested on: locomotor activity of wild-type and FABP1-KO mice; assay: Home-cage spontaneous locomotor activity (photobeam system); type: in vivo, mouse; conditions: THC 10 mg/kg i.p., 12 hour period, both sexes
Description: as §1
Locomotor activity was measured by the home-cage photobeam activity system (San Diego Instruments, San Diego, CA, USA). In this system each mouse home-cage was surrounded by a 4 × 8 photobeam array that detected and recorded movements in the X and Y directions. The animals were first conditioned to the cages in the testing room for one week to avoid novelty induced changes in locomotor activity. THC or vehicle were injected 10 minutes prior to the onset of the dark cycle and motility data was recorded over the next 12 hour period.

[6] = mouse, plasma, ip, 10 mg/kg, AUC, FABP1-KO mice
[7] = mouse, plasma, ip, 10 mg/kg, AUC, wild-type mice
[8] = mouse, plasma, ip, 10 mg/kg, Cmax, FABP1-KO mice
[9] = mouse, plasma, ip, 10 mg/kg, Cmax, wild-type mice

Row | SMILES | Ki [1] | Cmax ([2]; brain, FABP1-KO mice) | AUC ([2]; brain, FABP1-KO mice) | Cmax ([2]; brain, wild-type mice) | AUC ([2]; brain, wild-type mice) | AUC [2, 6] | AUC [2, 7] | Cmax [2, 8] | Cmax [2, 9] | maximal displacement of the fluorescent probe DAUDA [1] | other results
1 | CCCCCc1cc(O)c2c(c1)OC(C)(C)C1CCC(CO)=CC21 (stereo not shown) [11-OH-THC, 11-hydroxy-Δ^9-tetrahydrocannabinol] | 7.12 ± 0.79 µM | 243.6 ± 114.3 pmol/g | 1244 ± 314.6 pmol·h/g | 484.4 ± 207.8 pmol/g | 1327 ± 329.3 pmol·h/g | 112 ± 18.4 ng·h/mL | 59.4 ± 14.6 ng·h/mL | 50.6 ± 11.8 ng/mL | 29.5 ± 6.17 ng/mL | – | time remaining at detectable levels longer in FABP1-KO than in wild-type ([2]; brain and plasma): 1 to 2 h; M/P: metabolite to parent (THC) ratio (AUCm/AUCp) ([2]; brain, FABP1-KO mice): 0.169; M/P: metabolite to parent (THC) ratio (AUCm/AUCp) ([2]; brain, wild-type mice): 0.918; M/P: metabolite to parent (THC) ratio (AUCm/AUCp) ([2]; plasma, FABP1-KO mice): 0.0044; M/P: metabolite to parent (THC) ratio (AUCm/AUCp) ([2]; plasma, wild-type mice): 0.0052
2 | CCCCCCC(C)(C)c1cc(O)c2c(c1)OC(C)(C)[C@@H]1CC=C(C(=O)O)C[C@@H]21 [AJA, ajulemic acid] | 26 ± 3.8 µM | – | – | – | – | – | – | – | – | fully displace DAUDA | –
3 | C=C(C)[C@@H]1CCC(C)=C[C@H]1c1c(O)cc(CCCCC)cc1O [CBD, cannabidiol] | – | – | – | – | – | – | – | – | – | ~50% | Ki ([1]; FABP1 3 μM, DAUDA 500 nM, 25 °C, 20 min, pH 7.6, read-out: Ki (DAUDA displacement from FABP1)): 3.95 ± 0.65 µM
4 | CN(C)c1cccc2c(S(=O)(=O)NCCCCCCCCCCC(=O)O)cccc12 [DAUDA, 11-(Dansylamino)unadecanoic acid] | – | – | – | – | – | – | – | – | – | – | Kd [3]: 1.07 ± 0.17 µM
5 | CCCCCCCCCCCCCCCC(=O)NCCO [PEA, Palmitoylethanolamide] | – | – | – | – | – | – | – | – | – | – | remaining DAUDA fluorescence ([1]; at 50 µM): 101.8 ± 3.3 % fluorescence
6 | CCCCCc1cc(O)c2c(c1)OC(C)(C)[C@@H]1CCC(C)=C[C@@H]21 [THC, ∆^9-tetrahydrocannabinol] | 2.93 ± 0.27 µM | 881.9 ± 574.1 pmol/g | 7363 ± 949.0 pmol·h/g | 531.0 ± 71.35 pmol/g | 1446 ± 411.7 pmol·h/g | 25200 ± 7330 ng·h/mL | 11500 ± 2080 ng·h/mL | 34800 ± 2000 ng/mL | 13600 ± 2620 ng/mL | ~50% | increase in the brain AUC, FABP1-KO compared to WT ([2]; brain): ~ 6 fold; maximum mean body temperature change ([4]; FABP1-KO females): −8.1 °C; maximum mean body temperature change ([4]; FABP1-KO males): −7.4 °C; maximum mean body temperature change ([4]; WT females): −4.8 °C; maximum mean body temperature change ([4]; WT males): −4.8 °C; effect on spontaneous home-cage motility [5]: significant decrease in overall motility
7 | CCCCCc1cc(O)c2c(c1)OC(C)(C)C1CCC(C(=O)O)=CC21 (stereo not shown) [THC-COOH, 11-nor-9-carboxy-Δ^9-tetrahydrocannabinol] | 11.2 ± 0.7 µM | 50.02 ± 3.16 pmol/g | 522.6 ± 194.4 pmol·h/g | 58.33 ± 1.21 pmol/g | 362.8 ± 36.94 pmol·h/g | 544 ± 21.2 ng·h/mL | 506 ± 51.4 ng·h/mL | 78.7 ± 2.26 ng/mL | 87.1 ± 5.21 ng/mL | – | M/P: metabolite to parent (THC) ratio (AUCm/AUCp) ([2]; brain, FABP1-KO mice): 0.071; lower THC-COOH/THC ratio (AUCTHC-COOH/AUCTHC) in FABP1-KO brains vs WT ([2]; brain): 3–4 fold; ∆tmax (later maximal level in FABP1-KO brain vs WT) ([2]; brain): 4 h; M/P: metabolite to parent (THC) ratio (AUCm/AUCp) ([2]; brain, wild-type mice): 0.251; M/P: metabolite to parent (THC) ratio (AUCm/AUCp) ([2]; plasma, FABP1-KO mice): 0.0215; M/P: metabolite to parent (THC) ratio (AUCm/AUCp) ([2]; plasma, wild-type mice): 0.0440
8 | CCCCCCCC/C=C\CCCCCCCC(=O)O [oleic acid] | – | – | – | – | – | – | – | – | – | – | DAUDA displacement ([1]; at 10 µM): 96.5 ± 0.15 % displacement
